Read-outs that look alike come from different tables or passages of the source.
How the values were obtained:
[1] = tested on: HIF-1α-mediated HRE transcriptional activity; assay: Assay for inhibition of HIF-1α-mediated transcriptional activity (HRE reporter assay); format: cell-based, human; settings: Homo sapiens, HCT-116, HCT116 cells, 12 hours under hypoxia (1% O2), read-out: Inhibitory activity against HIF-1α (10 μM)
Method: <Experiment 1> Assay for Inhibition of HIF-1α-Mediated Transcriptional Activity (HRE Reporter Assay)
The compounds can be developed as anti-cancer drugs, because the compounds inhibiting HIF-1α-mediated HRE transcriptional activity induced by hypoxia can suppress the growth and metastasis of cancer.
Inhibitory effects of the compounds according to the present invention, from Formula I-1 to I-42, on HIF-1α-mediated transcriptional activity were evaluated using this assay. pGL3-HRE-luciferase vector was constructed as follows. Six copies of HRE (Hypoxia Responsive Element, 5′-ACGTG-3′) from human VEGF genes were inserted into the multi-cloning site of a pGL3-basic vector (Promega). A luciferase gene was used as a reporter gene.
In detail, HCT116(ATCC #CCL-247) human colon cancer cells were seeded in 48-well cell culture plates. The cells were co-transfected with 25 ng of pGL3-HRE-luciferase and 2.5 ng of Renila control vectors using Polyfect reagent next day. After 24 hours of incubation, the cells were incubated for an additional 4 hours with replaced cell culture media. The cells were treated with various concentrations (0, 1, 3, 5, 10, and 20 μM) of the above compounds according to the present invention and incubated for 12 hours under hypoxia (1% O2, 94% N2, and 5% CO2). The luciferase assay was performed using a dual-luciferase reporter assay system (Promega). After cell lysate preparation with RIPA buffer, induced luciferase activity under hypoxic conditions was determined to examine inhibitory effects of the compounds according to the present invention, from Formula I-1 to I-42, on HIF-1α-mediated transcriptional activity.

HIF-1α = target: T1, HIF-1α (Homo sapiens, UniProt Q16665); assay: Inhibition of hypoxia-induced HIF-1α accumulation, western blot in HCT116 cells; format: cell-based; settings: HCT116, hypoxia 1% O2, 0-30 μM, 12 hours, FIG. 1
T1 construct: endogenous in cells; host or cells: HCT116 human colon cancer cells (ATCC #CCL-247)
Method: <Experiment 2> In Vitro Studies for Inhibition of Hypoxia-Induced HIF-1α Accumulation
Inhibition of HIF-1α accumulation by the compounds according to the present invention was determined in HCT116 human colon cancer cells. In particular, western blot analysis was used to identify the compounds, I-3, I-6, I-8, I-16, I-19, I-22˜I-24, and I-27˜I-36, which inhibited HIF-1α accumulation under hypoxia.
(§1) First, HCT116 human colon cancer cells (ATCC #CCL-247) were plated at the concentration of 2×10^5 cells/ml. After 24 hours, the cells were incubated under hypoxia (1% O2, 94% N2, and 5% CO2, expressed as 1% O2 in FIG. 1) for 4 hours in order to induce HIF-la accumulation. Cells were treated with the compounds at various concentrations (0, 3, 10, 20, and 30 μM) for 12 hours under hypoxia. The cells were then harvested, and lysed in RIPA buffer to obtain nuclear extracts. Cells grown at 20% O2 (normoxia) were used as control groups to compare HIF-1α-mediated gene expression under each condition. 30 μg of the nuclear extracts per sample was separated by SDS-PAGE (sodium dodecyl sulfate-polyacrylamide gel electrophoresis), and was then transferred to PVDF (polyvinylidene fluoride membrane) membranes. After membranes were probed with HIF-1α antibodies (R&D System), HIF-1α proteins were detected with HRP-conjugated secondary antibodies (Amersham-Pharmacia). GAPDH (Glyceraldehyde 3-phosphate dehydrogenase) was used as an internal control for loading in western blot analysis.

GAPDH = GAPDH expression level (internal control) in western blot, HCT116 cells; format: cell-based, human; settings: HCT116, hypoxia 1% O2, 0-30 μM, 12 hours, FIG. 1
Method: as §1

[2] = tested on: HCT116 colon cancer cells; assay: In vivo anti-cancer activity by oral administration, HCT116 tumor in nude mice; set-up: species or system BALB/c nu/nu mice; settings: for inhibition in vivo at 20 mg/kg: Mus musculus
Method: <Example 4> In Vivo Anti-Cancer Activity of Compounds by Oral Administration
(§2) In vivo anti-cancer activity of the compounds according to the present invention, I-3, I-6, I-8, I-16, I-19, I-22, I-23, and I-24, was measured in mice to evaluate in vivo efficacy by oral administration. Specifically, the nude mice were divided into test groups and control groups, each consisting of 4 mice. In vivo efficacy was evaluated by measuring body weight, tumor volume, and tumor weight.
(§3) Female nude mice 6 weeks old (BALB/c nu/nu, Charles River) were bred in germ-free breeding rooms maintained at constant temperature and humidity. After the nude mice were anesthetized, HCT116 colon cancer cells were implanted at a count of […] cells/mouse into the rectum in BALB/c nu/nu mice and then the incisions were closed with surgical clips. The size of tumor was measured by a caliper. When the size of transplanted tumor reached to 50˜60 mm^3, the above compounds according to the present invention were administered. In more detail, after the above compounds in test groups were dissolved at concentration of 20 mg/kg in a solvent containing 80% of physiological saline, 10% of DMAC (dimethylacetamide), and 10% Tween 80 (hereinafter referred to as ‘Solvent A’), […] of dissolved compounds were orally administered once a day. Mice in control groups were treated with […] of Solvent A alone once daily.
(§4) Tumor volume and body weight were measured to identify in vivo anti-cancer activity of the compounds according to the present invention by repetitive oral administration. Tumor volume and tumor growth inhibition (TGI) in Table 2 were calculated according to the below Mathematic FIG. 1 and FIG. 2, respectively. Tumor growth inhibition was converted to a percentage in Table 2.

[3] = Body weight change and side effects during 14 days of oral treatment in nude mice; format: in vivo, BALB/c nu/nu mice
Method: as §2, §3, §4
Moreover, severe side effects and statistically significant changes of body weight in all mice treated compounds were not shown for 14 days, comparing to control groups treated with vehicle. (Table 3)

[4] = HCT-116, 72 h, day 3, 20 mg/kg oral once a day, read-out: TGI (tumor growth inhibition), tumor volume
[5] = HCT-116, 120 h, day 5, 20 mg/kg oral once a day, read-out: TGI (tumor growth inhibition), tumor volume
[6] = HCT-116, 168 h, day 7, 20 mg/kg oral once a day, read-out: TGI (tumor growth inhibition), tumor volume
[7] = HCT-116, 240 h, day 10, 20 mg/kg oral once a day, read-out: TGI (tumor growth inhibition), tumor volume
[8] = HCT-116, 288 h, day 12, 20 mg/kg oral once a day, read-out: TGI (tumor growth inhibition), tumor volume
[9] = HCT-116, 336 h, day 14, 20 mg/kg oral once a day, read-out: TGI (tumor growth inhibition), tumor volume
[10] = HCT-116, 336 h, day 14, 20 mg/kg oral once a day, read-out: TGI (tumor growth inhibition), tumor weight
[11] = day 3, 20 mg/kg oral once a day
[12] = day 5, 20 mg/kg oral once a day
[13] = day 7, 20 mg/kg oral once a day
[14] = day 10, 20 mg/kg oral once a day
[15] = day 12, 20 mg/kg oral once a day
[16] = day 14, 20 mg/kg oral once a day
[17] = day 0, 20 mg/kg oral once a day

T1 sequence (Q16665 whole entry): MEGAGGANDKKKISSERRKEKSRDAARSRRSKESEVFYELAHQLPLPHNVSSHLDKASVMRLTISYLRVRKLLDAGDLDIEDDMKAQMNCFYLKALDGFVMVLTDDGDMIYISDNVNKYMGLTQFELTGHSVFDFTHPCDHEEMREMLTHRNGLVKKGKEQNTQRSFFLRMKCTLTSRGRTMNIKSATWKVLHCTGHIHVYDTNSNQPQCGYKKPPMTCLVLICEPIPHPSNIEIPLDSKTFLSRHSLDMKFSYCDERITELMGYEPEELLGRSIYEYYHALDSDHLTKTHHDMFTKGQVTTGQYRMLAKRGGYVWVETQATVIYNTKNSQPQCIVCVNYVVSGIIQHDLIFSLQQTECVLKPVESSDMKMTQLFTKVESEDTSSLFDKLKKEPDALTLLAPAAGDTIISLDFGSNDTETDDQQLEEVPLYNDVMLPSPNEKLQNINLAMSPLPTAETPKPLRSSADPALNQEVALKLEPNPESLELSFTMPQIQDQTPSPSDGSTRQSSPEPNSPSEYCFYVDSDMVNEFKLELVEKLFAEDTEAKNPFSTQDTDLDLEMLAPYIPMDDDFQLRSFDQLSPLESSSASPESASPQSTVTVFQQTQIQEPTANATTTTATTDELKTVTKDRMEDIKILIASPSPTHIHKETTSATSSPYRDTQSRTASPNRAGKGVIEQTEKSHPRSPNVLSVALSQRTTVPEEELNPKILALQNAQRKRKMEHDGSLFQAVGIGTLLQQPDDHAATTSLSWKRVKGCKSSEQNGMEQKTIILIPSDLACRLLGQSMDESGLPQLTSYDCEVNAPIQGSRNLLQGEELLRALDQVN

With CN1CCN(C(=O)CCOc2ccc(C34CC5CC(CC(C5)C3)C4)cc2)CC1 [Compound I-8, 3-(4-(Adamantan-1-yl)phenoxy)-1-(4-methylpiperazin-1-yl)propan-1-one] the inhibition at 10 µM [1] was 51 to 75%, the HIF-1α degradation (HIF-1α) was “promoted HIF-1α degradation” and the “inhibitory effects on HIF-1α accumulation” value (HIF-1α) was “significant inhibitory effects on HIF-1α accumulation”. The GAPDH expression levels (GAPDH) was “did not affect GAPDH expression levels”, the inhibition in vivo at 20 mg/kg [2, 4] was 27.6% and the inhibition in vivo at 20 mg/kg [2, 5] was 29%. For the same compound, the inhibition in vivo at 20 mg/kg [2, 6] was 30%, the inhibition in vivo at 20 mg/kg [2, 7] was 29.3% and the inhibition in vivo at 20 mg/kg [2, 8] was 28.7%. The inhibition in vivo at 20 mg/kg [2, 9] was 29.3%, the inhibition in vivo at 20 mg/kg [2, 10] was 31% and the Tumor volume [2, 11] was 24.6 ± 5.1 mm^3. The Tumor volume [2, 12] was 65.5 ± 9.0 mm^3, the Tumor volume [2, 13] was 122.2 ± 7.9 mm^3 and the Tumor volume [2, 14] was 184.3 ± 10.0 mm^3. It also gave a Tumor volume [2, 15] of 319.7 ± 22.0 mm^3, a Tumor volume [2, 16] of 471.1 ± 29.0 mm^3 and a Tumor weight [2, 16] of 1634.6 ± 357.2 mg. It also gave a Body weight change [3, 17] of 100.0 ± 0.0%, a Body weight change [3, 11] of 102.2 ± 2.8% and a Body weight change [3, 12] of 103.4 ± 2.8%. It also gave a Body weight change [3, 13] of 102.6 ± 2.2%, a Body weight change [3, 14] of 102.9 ± 1.5% and a Body weight change [3, 15] of 101.9 ± 1.0%. For the same compound, the Body weight change [3, 16] was 101.7 ± 2.6%.
For Cc1cc(C23CC4CC(CC(C4)C2)C3)ccc1OCC(=O)N1CC[N+](C)(C)CC1.[I-] [Compound I-16, 4-(2-(4-(Adamantan-1-yl)-2-methylphenoxy)acetyl)-1,1-dimethylpiperazin-1-ium iodide], the inhibition at 10 µM [1] was 51 to 75%, the HIF-1α degradation (HIF-1α) was “promoted HIF-1α degradation” and the “inhibitory effects on HIF-1α accumulation” value (HIF-1α) was “significant inhibitory effects on HIF-1α accumulation”. The GAPDH expression levels (GAPDH) was “did not affect GAPDH expression levels”, the inhibition in vivo at 20 mg/kg [2, 4] was 28.6% and the inhibition in vivo at 20 mg/kg [2, 5] was 27.8%. It also gave an inhibition in vivo at 20 mg/kg [2, 6] of 27.9%, an inhibition in vivo at 20 mg/kg [2, 7] of 28.8% and an inhibition in vivo at 20 mg/kg [2, 8] of 28.6%. It also gave an inhibition in vivo at 20 mg/kg [2, 9] of 29.2%, an inhibition in vivo at 20 mg/kg [2, 10] of 30.2% and a Tumor volume [2, 11] of 24.2 ± 6.1 mm^3. It also gave a Tumor volume [2, 12] of 66.7 ± 14.2 mm^3, a Tumor volume [2, 13] of 125.8 ± 13.6 mm^3 and a Tumor volume [2, 14] of 185.7 ± 20.2 mm^3. It also gave a Tumor volume [2, 15] of 320.4 ± 33.9 mm^3, a Tumor volume [2, 16] of 471.8 ± 26.0 mm^3 and a Tumor weight [2, 16] of 1655.7 ± 288.4 mg. It also gave a Body weight change [3, 17] of 100.0 ± 0.0%, a Body weight change [3, 11] of 104.1 ± 1.6% and a Body weight change [3, 12] of 104.2 ± 2.8%. The Body weight change [3, 13] was 104.3 ± 1.9%, the Body weight change [3, 14] was 105.8 ± 4.2% and the Body weight change [3, 15] was 103.2 ± 3.6%. It also gave a Body weight change [3, 16] of 102.3 ± 3.7%.
CN1CCN(C(=O)C(C)(C)Oc2ccc(C34CC5CC(CC(C5)C3)C4)cc2)CC1 [Compound I-23, 2-(4-(Adamantan-1-yl)phenoxy)-2-methyl-1-(4-methylpiperazin-1-yl)propan-1-one] showed an inhibition at 10 µM [1] of 76 to 100%, an inhibition in vivo at 20 mg/kg [2, 4] of 13.5% and an inhibition in vivo at 20 mg/kg [2, 5] of 14.8%. For the same compound, the inhibition in vivo at 20 mg/kg [2, 6] was 12.7%, the inhibition in vivo at 20 mg/kg [2, 7] was 13.1% and the inhibition in vivo at 20 mg/kg [2, 8] was 13.1%. It also gave an inhibition in vivo at 20 mg/kg [2, 9] of 14.6%, an inhibition in vivo at 20 mg/kg [2, 10] of 14.5% and a Tumor volume [2, 11] of 40.9 ± 8.2 mm^3. The Tumor volume [2, 12] was 98.0 ± 13.9 mm^3, the Tumor volume [2, 13] was 182.4 ± 19.9 mm^3 and the Tumor volume [2, 14] was 352.7 ± 53.6 mm^3. For the same compound, the Tumor volume [2, 15] was 577.3 ± 74.1 mm^3, the Tumor volume [2, 16] was 987.6 ± 143.7 mm^3 and the Tumor weight [2, 16] was 3659.9 ± 434.8 mg. It also gave a Body weight change [3, 17] of 100.0 ± 0.0%, a Body weight change [3, 11] of 100.8 ± 1.1% and a Body weight change [3, 12] of 101.0 ± 1.6%. For the same compound, the Body weight change [3, 13] was 100.9 ± 0.7%, the Body weight change [3, 14] was 101.9 ± 1.1% and the Body weight change [3, 15] was 101.6 ± 1.3%. It also gave a Body weight change [3, 16] of 102.0 ± 2.0%.
CN(C)CCNC(=O)C(C)(C)Oc1ccc(C23CC4CC(CC(C4)C2)C3)cc1 [Compound I-24, 2-(4-(Adamantan-1-yl)phenoxy)-N-(2-(dimethylamino)ethyl)-2-methylpropanamide] gave an inhibition at 10 µM [1] of 76 to 100%, an inhibition in vivo at 20 mg/kg [2, 4] of 19.5% and an inhibition in vivo at 20 mg/kg [2, 5] of 18.4%. For the same compound, the inhibition in vivo at 20 mg/kg [2, 6] was 15.4%, the inhibition in vivo at 20 mg/kg [2, 7] was 15.8% and the inhibition in vivo at 20 mg/kg [2, 8] was 14.3%. It also gave an inhibition in vivo at 20 mg/kg [2, 9] of 14.4%, an inhibition in vivo at 20 mg/kg [2, 10] of 13.9% and a Tumor volume [2, 11] of 38.1 ± 6.4 mm^3. For the same compound, the Tumor volume [2, 12] was 93.8 ± 21.0 mm^3, the Tumor volume [2, 13] was 176.8 ± 27.6 mm^3 and the Tumor volume [2, 14] was 341.7 ± 58.8 mm^3. For the same compound, the Tumor volume [2, 15] was 569.1 ± 72.4 mm^3, the Tumor volume [2, 16] was 990.1 ± 140.3 mm^3 and the Tumor weight [2, 16] was 3685.5 ± 357.5 mg. For the same compound, the Body weight change [3, 17] was 100.0 ± 0.0%, the Body weight change [3, 11] was 103.5 ± 3.0% and the Body weight change [3, 12] was 104.0 ± 3.6%. It also gave a Body weight change [3, 13] of 103.6 ± 3.6%, a Body weight change [3, 14] of 105.0 ± 4.0% and a Body weight change [3, 15] of 104.9 ± 4.1%. It also gave a Body weight change [3, 16] of 106.5 ± 4.5%.
